Where two headings read alike, the source gives them in different places.
Key:
[1] = Biodistribution of 99mTc complexes in rats; format: in vivo, Australian Albino Wistar Rats; conditions: rats; for tissue uptake at 0.5 min / tissue uptake at 1 min / tissue uptake at 0.05 h / tissue uptake at 5 min / tissue uptake at 10 min: rat; for tissue uptake at 0.5 min: 30 sec
Experimental: (§1) A typical method of radiolabelling of the chelator was achieved by dissolving the chelator in a basic solution of saline. The pH was then adjusted to approx. 6 with HCl. Excess stannous chloride was added to the resultant solution followed by one equivalent volume of sodium ^99m TcO4 (10-50 mCi/ml). Final concentration of the chelator was approx. 1 mg/ml. The efficacy of labelling was determined by ITLC-SG. For each product only one main radiochemical species was observed. Each complex was diluted to 15 μCi/100 μl with saline. […] (See FIGS. 1A and 1B).
Selected data from biodistribution results of technetium-99m complexes of No. 1, No. 2 and No 4 in the liver, kidney and blood at 3 minutes is tabulated below.

[2] = Biodistribution of 99mTc complexes in mice; format: in vivo, Balb/c mice
Description: A series of derivatives incorporating carboxyl and phenolate donor groups (1-6) were synthesised by literature method and their radiolabelling characteristic and biological behaviour evaluated. Initial work involved an investigation of radiochemical properties of the ^99m Tc complexes of the ligands and their biodistribution in rats and mice (see Tables 1-6 and 8-12).
as §1

[3] = blood, read-out: biodistribution blood
[4] = bone, read-out: biodistribution bone
[5] = brain, read-out: biodistribution brain
[6] = eyes, read-out: biodistribution eyes
[7] = heart, read-out: biodistribution heart
[8] = kidneys, read-out: biodistribution kidneys
[9] = liver, read-out: biodistribution liver
[10] = lungs, read-out: biodistribution lungs
[11] = muscle, read-out: biodistribution muscle
[12] = pancreas, read-out: biodistribution pancreas
[13] = skin, read-out: biodistribution skin
[14] = spleen, read-out: biodistribution spleen
[15] = stomach, read-out: biodistribution stomach
[16] = tail, read-out: biodistribution tail
[17] = thymus, read-out: biodistribution thymus
[18] = thyroid, read-out: biodistribution thyroid
[19] = total git, read-out: biodistribution tot GIT

tissue uptake at 0.5 min [1, 3]: 1.93 %ID/g
tissue uptake at 1 min [1, 3]: 1.71 %ID/g
tissue uptake at 0.05 h ([1]; blood, 3 minutes, selected data, read-out: Blood): 1.16 %ID/g
tissue uptake at 5 min [1, 3]: 0.83 %ID/g
tissue uptake at 10 min [1, 3]: 0.71 %ID/g
tissue uptake at 0.5 min [1, 4]: 0.31 %ID/g
tissue uptake at 1 min [1, 4]: 0.32 %ID/g
tissue uptake at 0.05 h ([1]; bone, 3 min, read-out: biodistribution bone): 0.26 %ID/g
tissue uptake at 5 min [1, 4]: 0.25 %ID/g
tissue uptake at 10 min [1, 4]: 0.19 %ID/g
tissue uptake at 0.5 min [1, 5]: 0.14 %ID/g
tissue uptake at 1 min [1, 5]: 0.09 %ID/g
tissue uptake at 0.05 h ([1]; brain, 3 min, read-out: biodistribution brain): 0.06 %ID/g
tissue uptake at 5 min [1, 5]: 0.05 %ID/g
tissue uptake at 10 min [1, 5]: 0.04 %ID/g
tissue uptake at 0.5 min [1, 6]: 0.19 %ID/g
tissue uptake at 1 min [1, 6]: 0.17 %ID/g
tissue uptake at 0.05 h ([1]; eyes, 3 min, read-out: biodistribution eyes): 0.18 %ID/g
tissue uptake at 5 min [1, 6]: 0.17 %ID/g
tissue uptake at 10 min [1, 6]: 0.13 %ID/g
tissue uptake at 0.5 min [1, 7]: 0.75 %ID/g
tissue uptake at 1 min [1, 7]: 0.67 %ID/g
tissue uptake at 0.05 h ([1]; heart, 3 min, read-out: biodistribution heart): 0.46 %ID/g
tissue uptake at 5 min [1, 7]: 0.33 %ID/g
tissue uptake at 10 min [1, 7]: 0.27 %ID/g
tissue uptake at 0.05 h ([1]; kidney, 3 minutes, selected data, read-out: Kidney): 4.12 %ID/g
tissue uptake at 0.5 min [1, 8]: 6.73 %ID/g
tissue uptake at 1 min [1, 8]: 6.55 %ID/g
tissue uptake at 0.05 h ([1]; kidneys, 3 min, read-out: biodistribution kidneys): 4.12 %ID/g
tissue uptake at 5 min [1, 8]: 2.87 %ID/g
tissue uptake at 10 min [1, 8]: 2.72 %ID/g
tissue uptake at 0.5 min [1, 9]: 1.73 %ID/g
tissue uptake at 1 min [1, 9]: 2.01 %ID/g
tissue uptake at 0.05 h ([1]; liver, 3 minutes, selected data, read-out: Liver): 1.54 %ID/g
tissue uptake at 5 min [1, 9]: 1.34 %ID/g
tissue uptake at 10 min [1, 9]: 0.76 %ID/g
tissue uptake at 0.5 min [1, 10]: 1.15 %ID/g
tissue uptake at 1 min [1, 10]: 1.13 %ID/g
tissue uptake at 0.05 h ([1]; lungs, 3 min, read-out: biodistribution lungs): 0.8 %ID/g
tissue uptake at 5 min [1, 10]: 0.54 %ID/g
tissue uptake at 10 min [1, 10]: 0.46 %ID/g
tissue uptake at 0.5 min [1, 11]: 0.28 %ID/g
tissue uptake at 1 min [1, 11]: 0.27 %ID/g
tissue uptake at 0.05 h ([1]; muscle, 3 min, read-out: biodistribution muscle): 0.26 %ID/g
tissue uptake at 5 min [1, 11]: 0.27 %ID/g
tissue uptake at 10 min [1, 11]: 0.15 %ID/g
tissue uptake at 0.5 min [1, 12]: 0.49 %ID/g
tissue uptake at 1 min [1, 12]: 0.51 %ID/g
tissue uptake at 0.05 h ([1]; pancreas, 3 min, read-out: biodistribution pancreas): 0.44 %ID/g
tissue uptake at 5 min [1, 12]: 0.44 %ID/g
tissue uptake at 10 min [1, 12]: 0.3 %ID/g
tissue uptake at 0.5 min [1, 13]: 0.37 %ID/g
tissue uptake at 1 min [1, 13]: 0.43 %ID/g
tissue uptake at 0.05 h ([1]; skin, 3 min, read-out: biodistribution skin): 0.49 %ID/g
tissue uptake at 5 min [1, 13]: 0.53 %ID/g
tissue uptake at 10 min [1, 13]: 0.4 %ID/g
tissue uptake at 0.5 min [1, 14]: 0.53 %ID/g
tissue uptake at 1 min [1, 14]: 0.42 %ID/g
tissue uptake at 0.05 h ([1]; spleen, 3 min, read-out: biodistribution spleen): 0.26 %ID/g
tissue uptake at 5 min [1, 14]: 0.2 %ID/g
tissue uptake at 10 min [1, 14]: 0.15 %ID/g
tissue uptake at 0.5 min [1, 15]: 0.14 %ID/g
tissue uptake at 1 min [1, 15]: 0.28 %ID/g
tissue uptake at 0.05 h ([1]; stomach, 3 min, read-out: biodistribution stomach): 0.32 %ID/g
tissue uptake at 5 min [1, 15]: 0.11 %ID/g
tissue uptake at 10 min [1, 15]: 0.12 %ID/g
tissue uptake at 0.5 min [1, 16]: 0.68 %ID/g
tissue uptake at 1 min [1, 16]: 0.56 %ID/g
tissue uptake at 0.05 h ([1]; tail, 3 min, read-out: biodistribution tail): 0.8 %ID/g
tissue uptake at 5 min [1, 16]: 0.73 %ID/g
tissue uptake at 10 min [1, 16]: 0.83 %ID/g
tissue uptake at 0.5 min [1, 17]: 0.38 %ID/g
tissue uptake at 1 min [1, 17]: 0.35 %ID/g
tissue uptake at 0.05 h ([1]; thymus, 3 min, read-out: biodistribution thymus): 0.27 %ID/g
tissue uptake at 5 min [1, 17]: 0.19 %ID/g
tissue uptake at 10 min [1, 17]: 0.14 %ID/g
tissue uptake at 0.5 min [1, 18]: 1.42 %ID/g
tissue uptake at 1 min [1, 18]: 1.15 %ID/g
tissue uptake at 0.05 h ([1]; thyroid, 3 min, read-out: biodistribution thyroid): 1.17 %ID/g
tissue uptake at 5 min [1, 18]: 0.59 %ID/g
tissue uptake at 10 min [1, 18]: 0.4 %ID/g
tissue uptake at 0.5 min [1, 19]: 0.27 %ID/g
tissue uptake at 1 min [1, 19]: 0.34 %ID/g
tissue uptake at 0.05 h ([1]; total git, 3 min, read-out: biodistribution tot GIT): 0.59 %ID/g
tissue uptake at 5 min [1, 19]: 0.79 %ID/g
tissue uptake at 10 min [1, 19]: 1.22 %ID/g
biodistribution blood ([1]; 3 min): 1.16 % Injected dose per gram
biodistribution liver ([1]; 3 min): 1.54 % Injected dose per gram
biodistribution GIT ([2]; 1 min): 3.82 % Injected dose
biodistribution bladder ([2]; 1 min): 0.12 % Injected dose
biodistribution blood ([2]; 1 min): 27.09 % Injected dose
biodistribution bone ([2]; 1 min): 5.34 % Injected dose
biodistribution heart ([2]; 1 min): 0.57 % Injected dose
biodistribution kidney ([2]; 1 min): 11.78 % Injected dose
biodistribution liver ([2]; 1 min): 12.07 % Injected dose
biodistribution lungs ([2]; 1 min): 1.54 % Injected dose
biodistribution muscle ([2]; 1 min): 23.48 % Injected dose
biodistribution skin ([2]; 1 min): 19.66 % Injected dose
biodistribution spleen ([2]; 1 min): 0.17 % Injected dose
biodistribution stomach ([2]; 1 min): 0.5 % Injected dose
biodistribution tail ([2]; 1 min): 2.42 % Injected dose
biodistribution urine ([2]; 1 min): 0 % Injected dose
biodistribution GIT ([2]; 3 min): 6.06 % Injected dose
biodistribution bladder ([2]; 3 min): 0.63 % Injected dose
biodistribution blood ([2]; 3 min): 12.02 % Injected dose
biodistribution bone ([2]; 3 min): 3.1 % Injected dose
biodistribution heart ([2]; 3 min): 0.23 % Injected dose
biodistribution kidney ([2]; 3 min): 11.23 % Injected dose
biodistribution liver ([2]; 3 min): 12.83 % Injected dose
biodistribution lungs ([2]; 3 min): 0.98 % Injected dose
biodistribution muscle ([2]; 3 min): 13.18 % Injected dose
biodistribution skin ([2]; 3 min): 19.28 % Injected dose
biodistribution spleen ([2]; 3 min): 0.1 % Injected dose
biodistribution stomach ([2]; 3 min): 0.98 % Injected dose
biodistribution tail ([2]; 3 min): 1.58 % Injected dose
biodistribution urine ([2]; 3 min): 5.62 % Injected dose
biodistribution GIT ([2]; 5 min): 4.77 % Injected dose
biodistribution bladder ([2]; 5 min): 0.68 % Injected dose
biodistribution blood ([2]; 5 min): 9.77 % Injected dose
biodistribution bone ([2]; 5 min): 2.88 % Injected dose
biodistribution heart ([2]; 5 min): 0.21 % Injected dose
biodistribution kidney ([2]; 5 min): 9.17 % Injected dose
biodistribution liver ([2]; 5 min): 11.82 % Injected dose
biodistribution lungs ([2]; 5 min): 0.77 % Injected dose
biodistribution muscle ([2]; 5 min): 9.81 % Injected dose
biodistribution skin ([2]; 5 min): 19.68 % Injected dose
biodistribution spleen ([2]; 5 min): 0.07 % Injected dose
biodistribution stomach ([2]; 5 min): 1.02 % Injected dose
biodistribution tail ([2]; 5 min): 3.76 % Injected dose
biodistribution urine ([2]; 5 min): 4.51 % Injected dose
biodistribution GIT ([2]; 10 min): 12.35 % Injected dose
biodistribution bladder ([2]; 10 min): 1.96 % Injected dose
biodistribution blood ([2]; 10 min): 5.34 % Injected dose
biodistribution bone ([2]; 10 min): 5.06 % Injected dose
biodistribution heart ([2]; 10 min): 0.12 % Injected dose
biodistribution kidney ([2]; 10 min): 5.58 % Injected dose
biodistribution liver ([2]; 10 min): 5.96 % Injected dose
biodistribution lungs ([2]; 10 min): 0.48 % Injected dose
biodistribution muscle ([2]; 10 min): 16.44 % Injected dose
biodistribution skin ([2]; 10 min): 15.68 % Injected dose
biodistribution spleen ([2]; 10 min): 0.06 % Injected dose
biodistribution stomach ([2]; 10 min): 1.16 % Injected dose
biodistribution tail ([2]; 10 min): 2.07 % Injected dose
biodistribution urine ([2]; 10 min): 11.64 % Injected dose
biodistribution GIT ([2]; 30 min): 20 % Injected dose
biodistribution bladder ([2]; 30 min): 1.23 % Injected dose
biodistribution blood ([2]; 30 min): 1.82 % Injected dose
biodistribution bone ([2]; 30 min): 1.12 % Injected dose
biodistribution heart ([2]; 30 min): 0.05 % Injected dose
biodistribution kidney ([2]; 30 min): 3.19 % Injected dose
biodistribution liver ([2]; 30 min): 3.09 % Injected dose
biodistribution lungs ([2]; 30 min): 0.2 % Injected dose
biodistribution muscle ([2]; 30 min): 4.98 % Injected dose
biodistribution skin ([2]; 30 min): 7.31 % Injected dose
biodistribution spleen ([2]; 30 min): 0.02 % Injected dose
biodistribution stomach ([2]; 30 min): 0.49 % Injected dose
biodistribution tail ([2]; 30 min): 1.53 % Injected dose
biodistribution urine ([2]; 30 min): 8.84 % Injected dose
Compound: O=C(O)CN(CCN(CC(=O)O)CC(=O)Nc1ccccc1O)CC(=O)Nc1ccccc1O [Compound 1]

— US5807535A, “Metal complexes of hydroxyaryl containing aminocarboxylic acid chelating agents” (Australian Nuclear Science & Technology Organisation, priority 1992, dated 1998)
